These results are taken from paper PMC6934184, “Selective DNA-PKcs inhibition extends the therapeutic index of localized radiotherapy and chemotherapy” (The Journal of Clinical Investigation, 2019).

In the assay the target is T1, MARK3 (Homo sapiens, UniProt P27448).
T1 construct: purchased Thermo Fisher Scientific (Life Technologies) SelectScreen
Description: SelectScreen Z'LYTE. The assay is classed as biochemical. The gist of the method: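 Percent values come from Thermo SelectScreen profiling of NU5455, combining activity and binding assays. CSF1R was run in Z'LYTE format at Km app ATP, and CAMK1 in Adapta format with ATP listed at 10.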

T1 sequence (P27448 whole entry): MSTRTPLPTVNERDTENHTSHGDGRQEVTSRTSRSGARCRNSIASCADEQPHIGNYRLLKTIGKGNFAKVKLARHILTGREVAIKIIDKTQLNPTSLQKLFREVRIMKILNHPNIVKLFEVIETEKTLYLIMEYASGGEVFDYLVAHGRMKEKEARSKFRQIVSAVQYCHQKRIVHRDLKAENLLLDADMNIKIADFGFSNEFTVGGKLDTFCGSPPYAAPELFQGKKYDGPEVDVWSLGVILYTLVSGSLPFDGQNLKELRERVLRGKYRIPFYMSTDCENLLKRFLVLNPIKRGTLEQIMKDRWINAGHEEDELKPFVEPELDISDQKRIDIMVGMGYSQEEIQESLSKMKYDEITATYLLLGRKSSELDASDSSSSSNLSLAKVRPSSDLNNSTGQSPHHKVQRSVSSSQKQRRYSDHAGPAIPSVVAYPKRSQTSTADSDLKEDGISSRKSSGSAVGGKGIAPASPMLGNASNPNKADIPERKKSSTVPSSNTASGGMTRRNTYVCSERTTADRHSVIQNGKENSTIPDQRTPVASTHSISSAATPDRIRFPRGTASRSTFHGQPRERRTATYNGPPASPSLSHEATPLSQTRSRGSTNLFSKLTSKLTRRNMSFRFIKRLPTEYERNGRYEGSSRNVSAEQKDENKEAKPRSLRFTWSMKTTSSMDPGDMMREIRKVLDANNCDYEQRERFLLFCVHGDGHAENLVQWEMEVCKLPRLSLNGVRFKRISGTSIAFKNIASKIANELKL

As to `CN(C(=O)CN1CCOCC1)c1ccc2sc3c(-c4cccc5c(=O)cc(N6CC7CCC(C6)O7)oc45)cccc3c2c1` [NU5455], the inhibition at 1 µM amounted to 11.4%.
